Where two headings read alike, the source gives them in different places.
How the values were obtained:
E. maxima oocysts [1] = experiment: Effect of disinfectants at minimal inhibitory concentration on E. maxima oocyst viability; assay type: cell-based, Eimeria maxima
Description: (§1) In this example, additional disinfectant compounds were tested for their ability to inhibit microbial growth in Eimeria oocyst samples as compared to formalin. E. maxima oocysts were spiked with B. subtilis and P. chrysogenum, and the minimal inhibitory concentrations of several disinfectants were determined. The disinfectants were then added to E. maxima oocysts and the oocysts were stored at 2-7° C. for 6 months. The oocysts were assayed for viability and the decrease in viability due to the disinfectant was calculated by comparison to the same lot of oocysts stored in 0.5×PBS only. Exemplary results are summarized below in Table 5.

[2] = tested on: B. subtilis and P. chrysogenum; experiment: Minimal inhibitory concentration of disinfectants in E. maxima oocysts spiked with B. subtilis and P. chrysogenum; assay type: cell-based, Bacillus subtilis and Penicillium chrysogenum
Description: as §1

[3] = tested on: Eimeria acervulina oocysts; details: 0.1% formalin; stored 4 months at 2-7° C.; compared to same lot of oocysts stored with 0% formalin
Eimeria maxima oocysts = details: 0.675% formalin; stored 2 weeks at 2-7° C.; compared to same lot of oocysts stored with 0% formalin
[4] = tested on: Vaccine Serial (E. acervulina, E. maxima and E. tenella oocysts); details: storage at 2-7° C.
E. tenella oocysts = details: storage at 2-7° C.
Description: (§2) The effect of formalin on oocyst viability was investigated using oocyst lots of each Eimeria species (E. acervulina, E. maxima and E. tenella) and on vaccine. Viability was determined initially prior to the addition of formalin, and then after 1 year of storage at 2-7° C.

E. maxima oocysts [5] = details: storage at 2-7° C.
Description: as §2

E. acervulina oocysts = details: storage at 2-7° C.
Description: as §2

Compound | Decrease in Viability (E. maxima oocysts [1]; disinfectant at minimal inhibitory concentration, 6 months of storage at 2-7 C., compared to same lot stored with 0% disinfectant (0.5×PBS only)) [%] | Minimal Inhibitory Concentration [2] [%] | Decrease in Viability (E. maxima oocysts [1]) [%] | Decrease in Viability [3] [%] | Decrease in Viability (Eimeria maxima oocysts) [%] | % Viable Oocysts after Storage for 12 Months, Vaccine Serial 12 mo ([4]; formalin concentration 0.0028) [%] | % Viable Oocysts after Storage for 12 Months, Vaccine Serial 12 mo ([4]; formalin concentration 0.0071) [%] | % Viable Oocysts after Storage for 12 Months, E. tenella 12 mo (E. tenella oocysts; formalin concentration 0.010) [%] | % Viable Oocysts after Storage for 12 Months, E. tenella 12 mo (E. tenella oocysts; formalin concentration 0.025) [%] | % Viable Oocysts after Storage for 12 Months, E. maxima 12 mo (E. maxima oocysts [5]; formalin concentration 0.010) [%] | % Viable Oocysts after Storage for 12 Months, E. maxima 12 mo (E. maxima oocysts [5]; formalin concentration 0.025) [%] | % Viable Oocysts after Storage for 12 Months, E. acervulina 12 mo (E. acervulina oocysts; formalin concentration 0.010) [%] | % Viable Oocysts after Storage for 12 Months, E. acervulina 12 mo (E. acervulina oocysts; formalin concentration 0.025) [%]
CC(C)=CCCC(C)=CC=O [Citral] | 24 | 0.0125 |  |  |  |  |  |  |  |  |  |  | 
Cc1ccc(C(C)C)c(O)c1 [Thymol] |  | 0.0063 | 15 |  |  |  |  |  |  |  |  |  | 
C=O [Formalin, formaldehyde] |  |  |  | 37 | 49 | 83 | 84 | 95 | 86 | 47 | 41 | 59 | 27

— patent US11692164B2, “Antibiotic-free compositions for the prevention or control of coccidiosis” (Huvepharma Inc., priority 2017, dated 2023)
